Like-named read-outs stand apart in the source and are kept apart here.
Legend:
MYB mRNA = assay: RT-qPCR splicing assay, MYB mRNA canonical (CJ) and alternative (AJ) junction; type: cell-based, human; conditions: Homo sapiens; for AC50: MYB alternative junction mRNA, read-out: MYB AJ (increase in AJ mRNA, AC50)
Summary of the method: (§1)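 Splice switching quantified in compound-treated A673/K562 cells after 24 h exposure (top dose 10 uM, 3-fold steps, ≤0.25% DMSO), using CJ and AJ qPCR assays run at least in duplicate. RQ derived by 2^(−ΔΔCt), then percentage response.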

K562 cells = assay: Cell Titer Glo 2.0 cell viability (toxicity) assay, K562; conditions: 500 cells/well, 72 hours
HTT = assay: HiBiT protein abundance assay, HTT (K562 HiBiT knock-in); type: cell-based, human; conditions: HiBiT knock-in K562 cells, 24 hours, top dose 10 μM
Procedure: (§2) Compounds described herein were used to screen for effects on quantitative protein abundance using a HiBit assay system (Promega). Quantitative protein abundance was determined by measuring the protein levels of HiBit-tagged protein targets expressed in cell culture via luminescence using the Nano-Glo HiBiT Lytic Detection System, which uses a split complementation assay format to reconstitute NanoBiT enzyme to generate a luminescent signal. A protein abundance assay was developed such that endogenous protein targets could be modified with the HiBiT peptide tag and their abundance could be assessed after compound treatment. Briefly, K562 cell lines containing a HiBiT-modification were treated with various compounds described herein (e.g., compounds of Formulas (I), or (II)). After treatment for 24 hours, the protein abundance of a specific target was determined by measuring luminescence.
(§3) Cells were maintained in IMIDM with 10% FBS. Before the assay, cells were diluted with […] growth media (IMIDM+[…] media) and were seeded in a 384-well plate at a density of 10000 cells/well (for each cell line listed in Table 6). Each compound was prepared as a 10-point 3-fold serial dilution in DMSO with the top dose at a final concentration of 10 μM in the well. Unmodified K562 cells were added at the previously specified density with DMSO to serve as an assay baseline and positive control (PC) and DMSO only with the respective modified cell lines was added to the negative control (NC) columns. Final DMSO concentration was kept at or below 0.25%. Treated cell plates were placed in an incubator at 37° C. with […] for 24 hours. After 24 hours, 25 μL of Complete HiBit Lytic reagent was added to each well at room temperature (e.g. one plate requiring 10 mL Lytic Buffer, 100 μL LgBiT Protein, 200 μL Lytic Substrate), shaken for 5 minutes at 600 RPM, then left to sit for 10 minutes for signal to stabilize before reading on a Spark Cyto plate reader (Tecan) with a 500 ms measurement time.
(§4) To determine compound effects on protein abundance of each target in Table 6, the percent response for each respective cell line was calculated at each compound concentration as follows:
(§5) % response=100*(S−PC)(NC−PC)
(§6) For the normalized response at each concentration, a four-parameter logistical regression was fit to the data and the response was interpolated at the […] to determine a concentration for protein abundance at 50% (IC50) the untreated control.

HTT mRNA = assay: RT-qPCR splicing assay, HTT mRNA canonical (CJ) and alternative (AJ) junction; type: cell-based, human; conditions: Homo sapiens; for AC50: HTT alternative junction mRNA, read-out: HTT AJ (increase in AJ mRNA, AC50)
Summary of the method: as §1

MYB = assay: HiBiT protein abundance assay, MYB (K562 HiBiT knock-in); type: cell-based, human; conditions: HiBiT knock-in K562 cells, 24 hours, top dose 10 μM
Procedure: as §2, §3, §4, §5, §6

SMN2 mRNA = assay: RT-qPCR splicing assay, SMN2 mRNA; type: cell-based, human; conditions: Homo sapiens, canonical junction qPCR panel, Table 4; read-out: SMN2 IC50 (decrease in CJ mRNA levels)
Summary of the method: as §1

Target C = assay: HiBiT protein abundance assay, Target C (K562 HiBiT knock-in); type: cell-based, human; conditions: HiBiT knock-in K562 cells, 24 hours, top dose 10 μM
Procedure: as §3, §4, §5, §6

[1] = MYB canonical junction mRNA, RT-qPCR, read-out: MYB CJ (decrease in CJ mRNA levels, IC50)
[2] = canonical junction qPCR panel, Table 4, read-out: MYB IC50 (decrease in CJ mRNA levels)
[3] = HTT canonical junction mRNA, RT-qPCR, read-out: HTT CJ (decrease in CJ mRNA levels, IC50)
[4] = canonical junction qPCR panel, Table 4, read-out: HTT IC50 (decrease in CJ mRNA levels)

| SMILES | AC50 (MYB mRNA; RT-qPCR) [nM] | IC50 (MYB mRNA; [1]) [nM] | IC50 (MYB mRNA; [2]) [nM] | Effect of Exemplary Compounds on Cell Viability, K562 (K562 cells) | IC50 (HTT) [nM] | AC50 (HTT mRNA; RT-qPCR) [nM] | IC50 (HTT mRNA; [3]) [nM] | IC50 (HTT mRNA; [4]) [nM] | IC50 (MYB) [nM] | IC50 (SMN2 mRNA) [nM] | IC50 (Target C) [nM] |
| --- | --- | --- | --- | --- | --- | --- | --- | --- | --- | --- | --- |
| CN(C)C1CCN(c2ccc3nc(-c4cc5cn(C)nc5cc4O)ccc3n2)CC1 [Compound 133] | 100 to 1000 | 1000 to 10000 | 1000 to 10000 | B (B represents 100-1000 nM) | 1000 to 10000 | 1000 to 10000 | 1000 to 10000 | 1000 to 10000 | 1000 to 10000 | < 100 | 1000 to 10000 |
| Cn1cc2cc(-c3ccc4nc(N5CCNCC5)ccc4n3)c(O)cc2n1 [Compound 136] | 100 to 1000 | 100 to 1000 | 100 to 1000 | B (B represents 100-1000 nM) | 100 to 1000 | 1000 to 10000 | 1000 to 10000 | 1000 to 10000 | 100 to 1000 | < 100 | 100 to 1000 |
| C[C@@H]1CC(c2ccc3nc(-c4cc5cn(C)nc5cc4O)ccc3n2)C[C@H](C)N1 (stereo partly drawn) [Compound 137] | 100 to 1000 | 100 to 1000 | 100 to 1000 | B (B represents 100-1000 nM) | 100 to 1000 | 1000 to 10000 | 100 to 1000 | 100 to 1000 | 100 to 1000 | < 100 | 100 to 1000 |
| CCN1CCC(c2ccc3nc(-c4cc5cn(C)nc5cc4O)ccc3n2)CC1 [Compound 138] | 100 to 1000 | 100 to 1000 | 100 to 1000 | B (B represents 100-1000 nM) | 100 to 1000 | 100 to 1000 | 100 to 1000 | 100 to 1000 | 100 to 1000 | < 100 | 100 to 1000 |
| C[C@H]1C[C@H](c2ccc3nc(-c4cc5cn(C)nc5cc4O)ccc3n2)CCN1 [Compound 139] | < 100 | < 100 | < 100 | B (B represents 100-1000 nM) | 100 to 1000 | < 100 | < 100 | < 100 | 100 to 1000 | < 100 | < 100 |
| C[C@H]1C[C@@H](c2ccc3nc(-c4cc5cn(C)nc5cc4O)ccc3n2)CCN1 [Compound 140] | 100 to 1000 | < 100 | < 100 | B (B represents 100-1000 nM) | 100 to 1000 | 100 to 1000 | < 100 | < 100 | 100 to 1000 | < 100 | 100 to 1000 |
| Cn1cc2c(O)c(-c3cc4ccc(C5CCNCC5)nc4cn3)cc(Br)c2n1 [Compound 141] | 1000 to 10000 | 100 to 1000 | 100 to 1000 | C (C represents 1000-9999 nM) | 1000 to 10000 | 1000 to 10000 | 1000 to 10000 | 1000 to 10000 | 1000 to 10000 | 100 to 1000 | 1000 to 10000 |
| CN1CCC(c2ccc3nc(-c4cc5cn(C)nc5cc4O)ccc3n2)CC1 [Compound 142] | 100 to 1000 | 100 to 1000 | 100 to 1000 | B (B represents 100-1000 nM) | 100 to 1000 | 100 to 1000 | 100 to 1000 | 100 to 1000 | 100 to 1000 | < 100 | 100 to 1000 |
| COc1cc2nn(C)cc2cc1-c1ccc2c(F)c(C3CCNCC3)ccc2n1 [Compound 143] | > 10000 | > 10000 | > 10000 | B (B represents 100-1000 nM) | > 10000 | > 10000 | > 10000 | > 10000 | > 10000 | > 10000 | 1000 to 10000 |

From patent US20250092065A1, “2-(INDAZOL-5-YL)-6-(PIPERIDIN-4-YL)-1,7-NAPHTHYRIDINE DERIVATIVES AND RELATED COMPOUNDS AS MODULATORS FOR SPLICING NUCLEIC ACIDS AND FOR THE TREATMENT OF PROLIFERATIVE DISEASES” (REMIX THERAPEUTICS INC., priority 2022, published 2025)
